Experimental findings from US12577273B2, “Small molecule modulators of gut bacterial bile acid metabolism” (priority 2019, dated 2026) are described below.

Where “and” joins values, the source holds several entries; their conditions need not be identical. Identical values can stand only once. Entries after “also recorded” stand apart in the source; their conditions may differ.

For data set [1], the system named is B. adolescentis BSH. Nature of the data set: Target validation and off-target profiling in B. adolescentis using 7-N3. Type of data set: cell-based, Bifidobacterium adolescentis L2-32. Conditions: decreasing concentrations of 7 for 1 h, then 10 μM 7-N3. The procedure:
Target Validation and Off-target Profiling in B. adolescentis using 7-N3. Pilot studies with 7-N3 were performed using B. adolescentis (Gram positive) and B. theta (Gram negative). We chose to use B. adolescentis due to the stronger total fluorescent signal detected by-in gel fluorescence. […] Cultures were allowed to grow anaerobically at 37° C. for 21 h. 10 μM 7-N3 (10 mM stock in DMSO) or […] DMSO (to control tubes) was then added to the cultures and incubated anaerobically at 37° C. for 1 h. The cultures were centrifuged at 2,500 g at 4° C. for 15 mins. The media was decanted and cells were resuspended in PBS containing 1 mM TCEP and 1 mM PMSF and centrifuged 4,200 rpm at 4° C. for 15 mins. The buffer was decanted and the cells were suspended in 300 μL of fresh buffer and transferred to homogenizing tubes (Precellys lysing kit tough micro-organism lysing VK05 tubes) with ceramic beads. The suspension was then homogenized (5000 speed for 90 s*2, 6500 speed for 60 s) and spun down for 20 min at 15,000 g at 4° C. The supernatant was removed and the concentration of proteins in the lysate was quantified by Bradford assay. The lysates were then subjected to click reaction as per “Click Chemistry for In-gel Fluorescence Imaging” for fluorescence imaging and “Click Chemistry for MS/MS on Bacterial Lysate” for mass spectrophotometer-based quantification and identification.
Cultures were allowed to grow anaerobically at 37° C. for 21 h. Decreasing concentrations of 7 were added to different tubes and the cultures were incubated anaerobically at 37° C. for 1 h. 10 μM 7-N3 was then added to the cultures and incubated anaerobically at 37° C. for an additional hour. The cultures were further processed as per the reported method in “Target Validation and Off-target Profiling in B. adolescentis using 7-N3” and “Click Chemistry for In-gel Fluorescence Imaging”.
Click Chemistry for In-gel Fluorescence Imaging. Click reactions were performed on 25 μL scale. Lysates (normalized to 1.5 mg/mL for both bacterial and mammalian cells) pretreated with 10 μM Compound 7-N3 were incubated with 100 μM fluor 488-alkyne (10 mM stock in DMSO), 100 μM CuBr (5 mM stock in DMSO), and 100 μM Tris[(1-benzyl-1H-1,2,3-triazol-4-yl)methyl]amine (5 mM stock in 4:1 t-BuOH:DMSO) for 1 h at 37° C. in the dark. 10 μL of 2×Laemmli buffer (containing 5% β-mercaptoethanol) was added to the reactions and the tubes were heated at 95° C. for 10 mins. 15 μL of the protein samples were then resolved by 10% SDS-PAGE. The ladder was diluted 100-fold and 10 μL was loaded. Gels were destained for 30 mins using 40% methanol, 50% acetic acid, 10% water and visualized using Bio-Rad ChemiDoc MP Imaging System. Gels were stained for 20 mins in Coomassie blue and destained for 2 h prior to imaging.
Click Chemistry for MS/MS on Bacterial Lysate. Click reactions were performed on 100 μL scale. Lysates (normalized to 1.3 mg/mL) pretreated with 10 μM 7-N3 were incubated with 100 μM desthiobiotin-PEG4-alkyne (10 mM stock in DMSO), 1 mM CuBr (50 mM stock in DMSO), and 1 mM Tris[(1-benzyl-1H-1,2,3-triazol-4-yl)methyl]amine (50 mM stock in 4:1 t-BuOH:DMSO) for 1 h at 37° C. The samples were then processed for further analysis as per “Proteomic Analysis of Click-Tagged Proteins”.
Proteomic Analysis of Click-Tagged Proteins.

Data set [2] has as its system B. theta BSH KO strain. Nature of the data set: Incubation with BSH-deleted B. theta strain. Conditions: 100 μM inhibitor.
Data set [3] relates to three Gram negative and three Gram positive strains of human gut bacteria. Nature of the data set: Growth (OD600) and cell viability (CFU/mL) of the six gut bacterial strains. Conditions: 100 μM inhibitor.
In data set [4] the test system is B. vulgatus. Nature of the data set: Inhibitor screen in bacteria, B. vulgatus culture. It is filed as cell-based, Bacteroides vulgatus ATCC 8482. Conditions: FIG. 2c, 100 μM inhibitor, 100 μM bile acid pool, 21 h, replicates 1-3. The procedure:
Bacterial Culturing. All bacterial strains were cultured at 37° C. in Cullen-Haiser Gut (CHG) media (which consists of brain heart infusion media (Bacto™ BHI, BD) supplemented with 1% BBL vitamin K1-hemin solution (BD), 1% trace minerals solution (ATCC), 1% trace vitamins solution (ATCC), 5% fetal bovine serum (Hyclone), 1 g/L cellubiose, 1 g/L maltose, and 1 g/L fructose) or BHI^+ (Bacto™ BHI, BD, supplemented with 5 mg/L hemin, and 2.5 uL/L Vitamin K1). All strains were grown under anaerobic conditions in a anaerobic chamber (Coy Lab Products Airlock) with a gas mix of 5% hydrogen and 20% carbon dioxide nitrogen. Escherichia coli was grown aerobically at 37° C. in LB medium supplemented with ampicillin to select for the pET21b plasmid.
Inhibitor Screen in Bacteria. Bacterial cultures were diluted to OD600 of 0.1 in 4 mL BHI^+, containing 100 μM taurine conjugated bile acid pool 100 μM inhibitors. […] After 21 h, serial dilutions were plated on BHI^+ agar to determine cell viability (CFU/mL). […] The cultures were spun down in a centrifuge at 2,500 g for 5 mins to obtain better separation. The organic layer was then removed and the aqueous layer was extracted again using 2 mL of ethyl acetate.

Consider `C[C@H](CCC(=O)CF)[C@H]1CC[C@H]2[C@@H]3[C@H](O)C[C@@H]4C[C@H](O)CC[C@]4(C)[C@H]3CC[C@]12C` [Compound 7], for which, in data set [1], the “competition of 7 with 7-N3 for labeling of B. adolescentis BSH” value is “dose-dependent labeling”. Moreover, the “bactericidal effect on BSH-deleted B. theta (CFUs after 24 h)” value in data set [2] is reported as “not found to be bactericidal”. In data set [2] (100 μM taurine conjugated pool, 24 h), the “effect on bile acid pools with B. theta BSH KO strain” value is listed as “did not alter bile acid pools”. In data set [3], the “effect on bacterial cell viability (CFU/mL, plated at 21 h)” value is “not bactericidal; also recorded: did not significantly affect the cell viability of the majority of the tested strains” and the “effect on bacterial growth (OD600 at 24 hours)” value is on record as “did not significantly impact the growth”. In addition, in data set [3] (listed as compound 7), the “effect on bacterial growth (OD600 at 24 hours)” value is recorded as “not bactericidal”. In data set [4], the “% deconjugation of TCA” value is 0.68% and 0.64% and 0.47%; the “% deconjugation of TDCA” value is 0.90% and 0.17% and 0.81%; the “% deconjugation of TUDCA” value was 1.90% and 3.62% and 0.80%; the “% deconjugation of TβMCA” value is 1.58% and 0.41% and 0.65%.
